The values below come from article PMC12680189, “Aotaphenazine, a rare hydrophenazine, targets topoisomerase II with anticancer efficacy: In silico to in vitro evidence” (PLOS One, 2025).

The experiment concerns the target Topoisomerase II (Topo II). The experiment can be described thus: ELISA-based Topo II inhibition assay kit (Abcam), recombinant human enzyme, colorimetric. It is filed as biochemical. For orientation: In an ELISA, binding on a coated surface is turned into a signal by an enzyme label.

The IC50 is the concentration at which inhibition is half-maximal. Turning to `O=c1oc(=O)c2c(ccc3nc4ccccc4[nH]c32)c1-c1ccccc1` [aotaphenazine], the 50% inhibitory concentration (IC50) worked out at 45 nM.
